The supplement of paper PMC12463676, “Small-molecule dissolution of stress granules by redox modulation benefits ALS models” (Nature Chemical Biology, 2025)

Compound: NC(=O)CCCCC1CCSS1 [lipoamide]
Assay: thermal stability z-score vs DMSO; higher = more thermally stabilized by treatment
Conditions: HeLa; lipoamide concentration 100 µM; arsenate co-treatment: 1 mM arsenate 1 h
Description: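 Cellular thermal proteome profiling in HeLa cells. Cells were treated with 100 µM lipoamide for 1 h, with or without 1 mM arsenate for a further 1 h, then heated to ten temperatures (37-66.3 °C), and soluble protein was quantified by TMT mass spectrometry relative to 0.1% DMSO controls. The thermal stability score (sum of log2 fold changes minus the abundance score) was transformed to a z-score; mean of n = 3 experiments.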
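Note: each temperature applied for 3 min, abundance score taken as mean log2 fold change at the two lowest temperatures, z-score obtained by mean subtraction and division by SD.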

Sequence of UniProt Q9NP81 (Q9NP81 whole entry): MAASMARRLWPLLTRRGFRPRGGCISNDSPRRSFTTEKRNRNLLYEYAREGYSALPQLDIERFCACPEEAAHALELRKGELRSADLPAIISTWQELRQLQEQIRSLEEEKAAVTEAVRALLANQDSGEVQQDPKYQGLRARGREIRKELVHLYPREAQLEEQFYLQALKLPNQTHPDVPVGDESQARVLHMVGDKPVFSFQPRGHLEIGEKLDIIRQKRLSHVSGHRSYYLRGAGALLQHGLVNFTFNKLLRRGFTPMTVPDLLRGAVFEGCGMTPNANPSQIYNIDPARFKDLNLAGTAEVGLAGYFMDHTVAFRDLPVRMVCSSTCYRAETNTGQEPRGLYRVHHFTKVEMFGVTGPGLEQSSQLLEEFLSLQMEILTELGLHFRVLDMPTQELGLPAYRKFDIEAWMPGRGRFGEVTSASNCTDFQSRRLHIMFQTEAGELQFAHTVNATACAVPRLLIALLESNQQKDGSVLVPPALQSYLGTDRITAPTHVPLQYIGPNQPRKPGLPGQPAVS
Sequence of UniProt Q8IY17 (Q8IY17 whole entry): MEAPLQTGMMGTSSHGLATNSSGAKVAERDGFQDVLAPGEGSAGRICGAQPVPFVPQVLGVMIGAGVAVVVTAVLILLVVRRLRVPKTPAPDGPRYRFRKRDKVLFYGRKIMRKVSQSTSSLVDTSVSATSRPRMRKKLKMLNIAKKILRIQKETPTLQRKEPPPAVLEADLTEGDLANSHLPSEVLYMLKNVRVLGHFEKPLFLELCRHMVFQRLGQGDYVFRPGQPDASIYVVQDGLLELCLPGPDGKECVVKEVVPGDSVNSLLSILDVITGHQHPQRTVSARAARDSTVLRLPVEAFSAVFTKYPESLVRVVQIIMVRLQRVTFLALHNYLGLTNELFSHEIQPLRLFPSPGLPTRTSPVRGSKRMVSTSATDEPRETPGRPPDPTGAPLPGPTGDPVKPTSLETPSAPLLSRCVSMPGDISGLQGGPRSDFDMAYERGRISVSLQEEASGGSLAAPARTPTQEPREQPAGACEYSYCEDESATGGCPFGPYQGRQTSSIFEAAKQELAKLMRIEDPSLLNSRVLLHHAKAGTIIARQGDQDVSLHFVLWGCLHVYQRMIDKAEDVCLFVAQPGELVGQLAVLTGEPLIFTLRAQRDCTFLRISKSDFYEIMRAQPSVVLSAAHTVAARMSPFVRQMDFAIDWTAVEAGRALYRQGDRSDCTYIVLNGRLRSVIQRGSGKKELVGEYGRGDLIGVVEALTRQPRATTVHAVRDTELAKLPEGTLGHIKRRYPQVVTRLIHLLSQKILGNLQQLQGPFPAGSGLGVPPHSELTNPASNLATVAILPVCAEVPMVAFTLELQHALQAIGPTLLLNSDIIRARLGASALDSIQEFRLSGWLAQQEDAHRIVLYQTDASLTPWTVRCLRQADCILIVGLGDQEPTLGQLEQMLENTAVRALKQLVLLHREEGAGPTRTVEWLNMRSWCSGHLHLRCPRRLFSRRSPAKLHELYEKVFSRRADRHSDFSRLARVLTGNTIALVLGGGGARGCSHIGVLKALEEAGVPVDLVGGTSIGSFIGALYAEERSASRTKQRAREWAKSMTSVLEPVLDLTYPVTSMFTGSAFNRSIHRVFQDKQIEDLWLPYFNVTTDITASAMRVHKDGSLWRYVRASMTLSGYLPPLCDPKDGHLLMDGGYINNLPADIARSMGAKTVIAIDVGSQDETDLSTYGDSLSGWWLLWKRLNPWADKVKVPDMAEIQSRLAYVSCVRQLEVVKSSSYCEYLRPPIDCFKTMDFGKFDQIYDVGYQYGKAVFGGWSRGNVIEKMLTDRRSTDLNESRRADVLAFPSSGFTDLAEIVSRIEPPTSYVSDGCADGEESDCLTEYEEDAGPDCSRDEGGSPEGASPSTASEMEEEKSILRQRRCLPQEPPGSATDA
Sequence of UniProt Q96QC0 (Q96QC0 whole entry): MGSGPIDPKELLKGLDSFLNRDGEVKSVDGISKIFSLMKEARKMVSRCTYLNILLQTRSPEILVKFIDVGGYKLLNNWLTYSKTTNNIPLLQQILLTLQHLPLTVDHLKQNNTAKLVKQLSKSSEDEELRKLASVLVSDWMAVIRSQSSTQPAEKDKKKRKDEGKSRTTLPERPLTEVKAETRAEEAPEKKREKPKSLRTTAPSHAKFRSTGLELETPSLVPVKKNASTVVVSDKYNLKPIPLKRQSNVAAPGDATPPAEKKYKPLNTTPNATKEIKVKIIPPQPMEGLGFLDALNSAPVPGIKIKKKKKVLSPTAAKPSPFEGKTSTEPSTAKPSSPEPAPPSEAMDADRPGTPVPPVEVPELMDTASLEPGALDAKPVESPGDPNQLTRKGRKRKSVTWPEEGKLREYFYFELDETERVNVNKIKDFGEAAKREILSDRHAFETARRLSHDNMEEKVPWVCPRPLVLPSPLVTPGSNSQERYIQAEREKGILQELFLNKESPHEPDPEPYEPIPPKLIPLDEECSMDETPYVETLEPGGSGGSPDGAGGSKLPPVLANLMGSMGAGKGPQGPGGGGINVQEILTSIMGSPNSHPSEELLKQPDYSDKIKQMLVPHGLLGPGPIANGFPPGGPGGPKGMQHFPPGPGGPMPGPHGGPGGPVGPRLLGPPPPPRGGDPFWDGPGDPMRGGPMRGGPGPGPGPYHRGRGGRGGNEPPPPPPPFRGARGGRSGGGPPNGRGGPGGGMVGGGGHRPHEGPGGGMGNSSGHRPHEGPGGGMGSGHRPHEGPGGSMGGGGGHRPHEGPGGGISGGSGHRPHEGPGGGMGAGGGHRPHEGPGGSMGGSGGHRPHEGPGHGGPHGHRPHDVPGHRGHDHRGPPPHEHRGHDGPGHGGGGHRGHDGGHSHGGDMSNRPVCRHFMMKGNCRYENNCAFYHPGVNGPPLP
Sequence of UniProt Q9NRG4 (Q9NRG4 whole entry): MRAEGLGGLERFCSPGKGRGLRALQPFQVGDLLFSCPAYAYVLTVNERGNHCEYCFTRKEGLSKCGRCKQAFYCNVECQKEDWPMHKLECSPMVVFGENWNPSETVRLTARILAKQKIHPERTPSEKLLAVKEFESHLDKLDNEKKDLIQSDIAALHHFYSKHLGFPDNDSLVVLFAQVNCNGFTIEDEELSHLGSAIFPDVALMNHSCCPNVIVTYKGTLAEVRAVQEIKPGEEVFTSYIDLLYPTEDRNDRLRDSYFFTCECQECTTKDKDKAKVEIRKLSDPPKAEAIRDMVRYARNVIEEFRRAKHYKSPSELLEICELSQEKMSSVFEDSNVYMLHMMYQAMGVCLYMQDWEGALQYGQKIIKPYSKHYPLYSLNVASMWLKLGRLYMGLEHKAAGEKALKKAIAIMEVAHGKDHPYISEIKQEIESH
Sequence of UniProt Q96S97 (Q96S97 whole entry): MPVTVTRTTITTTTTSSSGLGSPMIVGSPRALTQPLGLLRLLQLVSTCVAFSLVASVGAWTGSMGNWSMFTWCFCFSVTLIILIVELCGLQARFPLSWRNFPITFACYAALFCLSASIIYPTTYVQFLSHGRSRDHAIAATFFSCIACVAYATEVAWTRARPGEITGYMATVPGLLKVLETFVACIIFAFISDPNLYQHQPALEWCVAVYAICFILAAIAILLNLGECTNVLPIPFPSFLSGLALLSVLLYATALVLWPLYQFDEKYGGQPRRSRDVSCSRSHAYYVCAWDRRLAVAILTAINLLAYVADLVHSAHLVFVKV
Sequence of UniProt Q5VW38 (Q5VW38 whole entry): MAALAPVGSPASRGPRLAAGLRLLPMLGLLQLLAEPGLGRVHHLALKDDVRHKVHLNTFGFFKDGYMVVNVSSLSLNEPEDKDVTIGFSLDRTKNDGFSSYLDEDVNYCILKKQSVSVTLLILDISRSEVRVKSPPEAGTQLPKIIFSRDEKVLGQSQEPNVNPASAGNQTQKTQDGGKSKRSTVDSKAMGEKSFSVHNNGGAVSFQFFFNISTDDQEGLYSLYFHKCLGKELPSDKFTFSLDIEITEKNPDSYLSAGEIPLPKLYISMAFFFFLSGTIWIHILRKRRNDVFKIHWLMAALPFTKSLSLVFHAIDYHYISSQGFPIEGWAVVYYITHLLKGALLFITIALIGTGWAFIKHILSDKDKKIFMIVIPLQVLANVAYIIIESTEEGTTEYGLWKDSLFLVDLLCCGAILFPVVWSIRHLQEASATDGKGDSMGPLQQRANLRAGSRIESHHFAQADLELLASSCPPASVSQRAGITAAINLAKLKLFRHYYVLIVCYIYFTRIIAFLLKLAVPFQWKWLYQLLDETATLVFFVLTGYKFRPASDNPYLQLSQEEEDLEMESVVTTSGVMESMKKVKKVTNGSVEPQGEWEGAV
Sequence of UniProt Q9Y2Z0 (Q9Y2Z0 whole entry): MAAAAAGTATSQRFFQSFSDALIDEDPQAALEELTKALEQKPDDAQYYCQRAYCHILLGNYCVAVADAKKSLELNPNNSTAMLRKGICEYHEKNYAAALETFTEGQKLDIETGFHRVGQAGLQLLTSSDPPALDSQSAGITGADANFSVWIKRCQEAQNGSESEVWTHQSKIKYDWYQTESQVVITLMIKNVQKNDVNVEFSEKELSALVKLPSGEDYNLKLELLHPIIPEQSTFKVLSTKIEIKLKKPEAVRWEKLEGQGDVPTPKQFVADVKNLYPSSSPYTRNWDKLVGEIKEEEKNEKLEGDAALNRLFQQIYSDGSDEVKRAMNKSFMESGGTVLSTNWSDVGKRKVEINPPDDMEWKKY
Sequence of UniProt P36952 (P36952 whole entry): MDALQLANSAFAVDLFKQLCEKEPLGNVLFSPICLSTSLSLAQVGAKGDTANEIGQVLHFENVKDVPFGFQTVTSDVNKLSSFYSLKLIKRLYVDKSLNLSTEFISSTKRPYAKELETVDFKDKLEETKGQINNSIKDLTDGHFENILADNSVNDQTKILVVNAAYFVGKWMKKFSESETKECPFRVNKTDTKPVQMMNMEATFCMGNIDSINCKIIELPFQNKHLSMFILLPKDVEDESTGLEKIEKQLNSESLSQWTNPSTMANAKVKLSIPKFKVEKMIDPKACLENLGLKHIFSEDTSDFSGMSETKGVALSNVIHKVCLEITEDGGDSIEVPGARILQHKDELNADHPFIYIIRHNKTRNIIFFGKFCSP

Target	thermal stability z-score
SARS2 (UniProt Q9NP81)	-0.781
CEP76 (UniProt Q8TAP6)	-0.336
MAN1A1 (UniProt P33908)	0.547
PAPOLG (UniProt Q9BWT3)	-0.086
PDIA5 (UniProt Q14554)	-3.58
COX4I1 (UniProt P13073)	0.239
MGST3 (UniProt O14880)	0.65
CNNM2 (UniProt Q9H8M5)	0.397
PPP1R10 (UniProt Q96QC0)	0.565
EXD2 (UniProt Q9NVH0)	-0.228
GIPC1 (UniProt O14908)	-0.301
CLSTN1 (UniProt O94985)	-0.443
GLCE (UniProt O94923)	0.386
NDUFAF4 (UniProt Q9P032)	-0.153
RWDD4 (UniProt Q6NW29)	-0.526
SMAP (UniProt O00193)	0.384
HSPG2 (UniProt P98160)	0.252
SUGT1 (UniProt Q9Y2Z0)	0.611
ADAT3 (UniProt Q96EY9)	-0.293
RICTOR (UniProt Q6R327)	-1.23
KNOP1 (UniProt Q1ED39)	0.735
GCC1 (UniProt Q96CN9)	-0.192
NUDT9 (UniProt Q9BW91)	-0.674
HMGCL (UniProt P35914)	1.01

Target	thermal stability z-score
IRF2BP1 (UniProt Q8IU81)	-0.196
UBR2 (UniProt Q8IWV8)	0.13
RPL29 (UniProt P47914)	0.301
MRGBP (UniProt Q9NV56)	0.386
PPCS (UniProt Q9HAB8)	-0.183
ABHD12 (UniProt Q8N2K0)	-0.435
PPP4C (UniProt P60510)	0.813
SMAP1 (UniProt Q8IYB5)	-0.131
SERPINB5 (UniProt P36952)	0.571
PAPSS2 (UniProt O95340)	-0.146
CCPG1 (UniProt Q9ULG6)	-2.1
ATG4A (UniProt Q8WYN0)	0.167
C16ORF13 (UniProt Q96S19)	0.306
APOBEC3C (UniProt Q9NRW3)	-0.418
INADL (UniProt Q8NI35)	-0.13
SERBP1 (UniProt Q8NC51)	0.533
MED27 (UniProt Q6P2C8)	-0.0367
NEMF (UniProt O60524)	-0.153
FAM46A (UniProt Q96IP4)	-0.0743
TNFRSF10A (UniProt O00220)	-1.82
MRM1 (UniProt Q6IN84)	-0.994
WNK1 (UniProt Q9H4A3)	0.149
WDFY3 (UniProt Q8IZQ1)	-0.0589
DIS3L (UniProt Q8TF46)	0.0339

Target	thermal stability z-score
ITFG2 (UniProt Q969R8)	1.01
MYADM (UniProt Q96S97)	0.0599
GDI1 (UniProt P31150)	0.00835
BLOC1S1 (UniProt P78537)	-0.0484
CRKL (UniProt P46109)	0.0621
BAIAP2L1 (UniProt Q9UHR4)	0.0217
GPR107 (UniProt Q5VW38)	-0.0315
ZYG11B (UniProt Q9C0D3)	-0.0727
POLDIP3 (UniProt Q9BY77)	-0.257
UNC119B (UniProt A6NIH7)	1.07
TAF2 (UniProt Q6P1X5)	-0.03
SMYD2 (UniProt Q9NRG4)	0.863
CNOT1 (UniProt A5YKK6)	-0.186
RXRB (UniProt P28702)	0.117
MXRA7 (UniProt P84157)	0.254
C2ORF49 (UniProt Q9BVC5)	0.426
WDR6 (UniProt Q9NNW5)	-0.00677
KBTBD4 (UniProt Q9NVX7)	0.389
PNPLA6 (UniProt Q8IY17)	0.758
PLXND1 (UniProt Q9Y4D7)	-0.194
EIF1AD (UniProt Q8N9N8)	0.433
PPIA (UniProt P62937)	0.27
FAM175B (UniProt Q15018)	0.515

Same assay, conditions: HeLa; lipoamide concentration 100 µM; arsenate co-treatment: none

Target	thermal stability z-score
SARS2 (UniProt Q9NP81)	-0.828
CEP76 (UniProt Q8TAP6)	0.197
MAN1A1 (UniProt P33908)	0.362
PAPOLG (UniProt Q9BWT3)	0.083
PDIA5 (UniProt Q14554)	-2.41
COX4I1 (UniProt P13073)	0.296
MGST3 (UniProt O14880)	0.431
CNNM2 (UniProt Q9H8M5)	0.656
PPP1R10 (UniProt Q96QC0)	0.255
EXD2 (UniProt Q9NVH0)	-0.168
GIPC1 (UniProt O14908)	-0.267
CLSTN1 (UniProt O94985)	0.255
GLCE (UniProt O94923)	0.177
NDUFAF4 (UniProt Q9P032)	0.199
RWDD4 (UniProt Q6NW29)	-0.0479
SMAP (UniProt O00193)	0.48
HSPG2 (UniProt P98160)	0.126
SUGT1 (UniProt Q9Y2Z0)	0.585
ADAT3 (UniProt Q96EY9)	0.276
RICTOR (UniProt Q6R327)	-0.161
KNOP1 (UniProt Q1ED39)	-0.755
GCC1 (UniProt Q96CN9)	-0.169
NUDT9 (UniProt Q9BW91)	-0.346
HMGCL (UniProt P35914)	0.651

Target	thermal stability z-score
IRF2BP1 (UniProt Q8IU81)	-0.13
UBR2 (UniProt Q8IWV8)	0.182
RPL29 (UniProt P47914)	-0.146
MRGBP (UniProt Q9NV56)	-0.212
PPCS (UniProt Q9HAB8)	0.122
ABHD12 (UniProt Q8N2K0)	-0.517
PPP4C (UniProt P60510)	0.205
SMAP1 (UniProt Q8IYB5)	-0.152
SERPINB5 (UniProt P36952)	0.206
PAPSS2 (UniProt O95340)	-0.156
CCPG1 (UniProt Q9ULG6)	-2.44
ATG4A (UniProt Q8WYN0)	0.0706
C16ORF13 (UniProt Q96S19)	0.154
APOBEC3C (UniProt Q9NRW3)	-0.453
INADL (UniProt Q8NI35)	-0.0923
SERBP1 (UniProt Q8NC51)	0.5
MED27 (UniProt Q6P2C8)	0.069
NEMF (UniProt O60524)	-0.18
FAM46A (UniProt Q96IP4)	0.0046
TNFRSF10A (UniProt O00220)	-1.91
MRM1 (UniProt Q6IN84)	-0.349
WNK1 (UniProt Q9H4A3)	-0.0327
WDFY3 (UniProt Q8IZQ1)	0.0954
DIS3L (UniProt Q8TF46)	0.0425

Target	thermal stability z-score
ITFG2 (UniProt Q969R8)	0.534
MYADM (UniProt Q96S97)	0.353
GDI1 (UniProt P31150)	-0.013
BLOC1S1 (UniProt P78537)	0.202
CRKL (UniProt P46109)	0.384
BAIAP2L1 (UniProt Q9UHR4)	-0.166
GPR107 (UniProt Q5VW38)	0.243
ZYG11B (UniProt Q9C0D3)	-0.16
POLDIP3 (UniProt Q9BY77)	0.0404
UNC119B (UniProt A6NIH7)	0.468
TAF2 (UniProt Q6P1X5)	-0.0592
SMYD2 (UniProt Q9NRG4)	0.716
CNOT1 (UniProt A5YKK6)	0.0688
RXRB (UniProt P28702)	0.096
MXRA7 (UniProt P84157)	0.307
C2ORF49 (UniProt Q9BVC5)	0.229
WDR6 (UniProt Q9NNW5)	0.325
KBTBD4 (UniProt Q9NVX7)	-0.408
PNPLA6 (UniProt Q8IY17)	0.548
PLXND1 (UniProt Q9Y4D7)	-0.712
EIF1AD (UniProt Q8N9N8)	0.98
PPIA (UniProt P62937)	0.693
FAM175B (UniProt Q15018)	0.293

Compound: O=[As]([O-])(O)O.[K+] [potassium arsenate]
Assay: as above
Conditions: HeLa; arsenate concentration 1 mM
Description: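 Cellular thermal proteome profiling in HeLa cells treated with 1 mM arsenate for 1 h (DMSO pretreatment), heated to ten temperatures (37-66.3 °C). Soluble protein was quantified by TMT mass spectrometry relative to DMSO controls; the thermal stability score was transformed to a z-score; mean of n = 3 experiments.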

Target	thermal stability z-score
SARS2 (UniProt Q9NP81)	-0.442
CEP76 (UniProt Q8TAP6)	-1.36
MAN1A1 (UniProt P33908)	0.104
PAPOLG (UniProt Q9BWT3)	0.167
PDIA5 (UniProt Q14554)	0.611
COX4I1 (UniProt P13073)	0.514
MGST3 (UniProt O14880)	2.22
CNNM2 (UniProt Q9H8M5)	-0.152
PPP1R10 (UniProt Q96QC0)	0.332
EXD2 (UniProt Q9NVH0)	-0.499
GIPC1 (UniProt O14908)	-0.251
CLSTN1 (UniProt O94985)	1.06
GLCE (UniProt O94923)	0.231
NDUFAF4 (UniProt Q9P032)	0.182
RWDD4 (UniProt Q6NW29)	0.261
SMAP (UniProt O00193)	-0.154
HSPG2 (UniProt P98160)	2.43
SUGT1 (UniProt Q9Y2Z0)	0.388
ADAT3 (UniProt Q96EY9)	-0.301
RICTOR (UniProt Q6R327)	0.166
KNOP1 (UniProt Q1ED39)	0.831
GCC1 (UniProt Q96CN9)	-0.179
NUDT9 (UniProt Q9BW91)	0.0652
HMGCL (UniProt P35914)	5.41

Target	thermal stability z-score
IRF2BP1 (UniProt Q8IU81)	-0.228
UBR2 (UniProt Q8IWV8)	0.444
RPL29 (UniProt P47914)	-0.918
MRGBP (UniProt Q9NV56)	-0.45
PPCS (UniProt Q9HAB8)	-0.328
ABHD12 (UniProt Q8N2K0)	-0.351
PPP4C (UniProt P60510)	0.166
SMAP1 (UniProt Q8IYB5)	-0.139
SERPINB5 (UniProt P36952)	0.0156
PAPSS2 (UniProt O95340)	1.57
CCPG1 (UniProt Q9ULG6)	0.351
ATG4A (UniProt Q8WYN0)	-0.744
C16ORF13 (UniProt Q96S19)	0.536
APOBEC3C (UniProt Q9NRW3)	-0.53
INADL (UniProt Q8NI35)	-0.0383
SERBP1 (UniProt Q8NC51)	-0.0206
MED27 (UniProt Q6P2C8)	0.0267
NEMF (UniProt O60524)	0.135
FAM46A (UniProt Q96IP4)	-0.0735
TNFRSF10A (UniProt O00220)	-1.65
MRM1 (UniProt Q6IN84)	-0.991
WNK1 (UniProt Q9H4A3)	0.386
WDFY3 (UniProt Q8IZQ1)	-0.0794
DIS3L (UniProt Q8TF46)	0.0192

Target	thermal stability z-score
ITFG2 (UniProt Q969R8)	-0.266
MYADM (UniProt Q96S97)	1.34
GDI1 (UniProt P31150)	-0.353
BLOC1S1 (UniProt P78537)	-0.255
CRKL (UniProt P46109)	0.656
BAIAP2L1 (UniProt Q9UHR4)	0.177
GPR107 (UniProt Q5VW38)	0.169
ZYG11B (UniProt Q9C0D3)	-0.142
POLDIP3 (UniProt Q9BY77)	-1.86
UNC119B (UniProt A6NIH7)	-0.0898
TAF2 (UniProt Q6P1X5)	-0.179
SMYD2 (UniProt Q9NRG4)	1.28
CNOT1 (UniProt A5YKK6)	1.04
RXRB (UniProt P28702)	-0.458
MXRA7 (UniProt P84157)	-0.34
C2ORF49 (UniProt Q9BVC5)	0.0813
WDR6 (UniProt Q9NNW5)	0.0479
KBTBD4 (UniProt Q9NVX7)	0.259
PNPLA6 (UniProt Q8IY17)	0.246
PLXND1 (UniProt Q9Y4D7)	0.534
EIF1AD (UniProt Q8N9N8)	1.09
PPIA (UniProt P62937)	-0.295
FAM175B (UniProt Q15018)	-0.57
